This note sets out measurements from patent US20090155339A1, “Biocompatible Antimicrobial Filament Material” (AESCULAP AG & CO. KG, priority 2005, published 2009).

For the data set, the system named is L929 cells (DSM ACC2, mouse fibroblasts). In words: Cytotoxicity of PHMB-HCl coated thread extracts, growth inhibition (BCA Assay method). The class given is cell-based. Conditions: positive control 7.5% v/v DMSO, 72 h. The method, then:
The test was carried out in accordance with the standard EN ISO/IEC 17025. The thread pieces were extracted in the absence of light with the DMEM-FBS cell culture medium at 37±2° C. for 7 days. The absorbed DMEM-FBS was made up to a volume such that the surface/volume ratio was 9 cm^2/ml. As a negative control, DMEM-FBS was incubated at 37±2° C. for 7 days without test material. 7.5% v/v DMSO was used as positive control. Extracts and negative controls were diluted in five steps with DMEM-FBS solution (dilution ratio 2:3). 100 μl of the dilute solutions of the extracts and of the negative controls and also 100 μl of the positive controls were added in triplicate to wells in a […]. Thereafter, 50 μl of a freshly prepared cell suspension (7.5×10^4 cells/ml) were added to all wells except those used for background determination. The final concentrations of the extracts were accordingly 66.7%, 44.5%, 29.6%, 19.8%, 13.2% and 8.8% v/v. The plates were then incubated at 37±2° C. in humidified air (5% CO2/95% air) for 72±2 hours. Thereafter, the protein content of the samples was determined calorimetrically at a wavelength of 550 nm (BCA Assay method). The test organisms used were L929 cells (DSM ACC2, mouse fibroblasts, clone of the L strand). […] FBS and P/S from Biochrom (Berlin) and BCA protein quantification kit from Interchim (France).

`C[S+](C)[O-]` [Positive control, DMSO] gave a Growth inhibition of 81%.
